Measured values reported in paper PMC5955586, “Transport of enniatin B and enniatin B1 across the blood-brain barrier and hints for neurotoxic effects in cerebral cells” (PLoS ONE, 2018).

Experiments:
HT-29 = test system: HT-29; design: method as in PMID 21640785; settings: HT-29, 48 h; cited from earlier work
HepG2 cells = test system: HepG2 cells; design: method as in PMID 16730043; settings: HepG2, 24 h, Alamar Blue; cited from earlier work
caspase-3 = assay: Caspase-3 activity in CCF-STTG1 lysates; assay type: cell-based, human; settings: 48 h
Method: For studying caspase-3 activity CCF-STTG1 cells were seeded in 12 well tissue culture plates in a cell density of 2.25 × 10^5 cells/well. The cells were grown for 24 h until a confluence of at least 70% was reached, then the medium was changed to serum free medium (RPMI 1640 medium supplemented with 100 U/mL penicillin, 100 μg/mL streptomycin and 2 mM L-glutamine). Concentrations from 0.1 μM to 2.5 μM were chosen to prevent strong cytotoxic effects, which might interfere with the endpoint of interest. 24 h after adaption to serum free conditions, cells were incubated with ENN B and ENN B1. Caspase-3 activity was determined in lysates. […] 33 μL reaction solution were added to 30 μL of the supernatant and incubated for 1 and 2 h at 37°C, 5% CO2 and saturated humidified atmosphere and then measured at λex = 405 nm and λem = 520 nm (Infinite M200 PRO microplate reader). […] The results were calculated as μmol AFC/μg protein and normalized to the solvent treated control (ACN 0.25%).
For quantitation of the total protein content a bicinchoninic acid (BCA) assay kit (Sigma-Aldrich GmbH, Seelze, Germany) was applied. […] After that the absorbance was measured at 560 nm with a Infinite M200 PRO microplate reader (Tecan, Crailsheim, Germany).

CCF-STTG1 cells = assay: LDH leakage in CCF-STTG1; assay type: cell-based, human; settings: CCF-STTG1, 0.1 to 2.5 μM, 48 h
Method: For measurement of lactate dehydrogenase (LDH) leakage, cell lysates and treatment solutions (serum free medium with respective ENN B/B1 content) after incubation for 48 h were used. The cell lysates were prepared as described for caspase-3 activation assay. To determine the LDH activity, 15 μL of the lysate and 40 μL of the incubation medium were each added to 200 μL substrate buffer (100 mM HEPES, 10 mM sodium pyruvate and 0.21 mM NADH, adjusted to pH 7.0), incubated over the course of 30 min at 37°C and absorption was measured every 2 min at 355 nm in a Infinite M200 PRO microplate reader (Tecan, Crailsheim, Germany).

[1] = CCK-8 viability assay in PBCEC; assay type: cell-based, porcine; settings: pig, primary porcine brain capillary endothelial cells (PBCEC)
Method: (§1) Primary porcine brain capillary endothelial cells (PBCEC) were kindly provided by the group of Prof. Dr. Langer, Institute of Pharmaceutical Technology, WWU Münster. Cellular viability was tested after treatment for 48 h using the CCK-8 assay, like applied for the cell lines but with minor modifications. Based on earlier protocols for the cultivation of PBCEC, the cryopreserved PBCEC were thawed at 37°C in a water bath, gently resuspended in culture medium (Medium 199 Earle’s with 100 U/mL penicillin, 100 μg/mL streptomycin, 100 μg/mL gentamycin, 4.1 mM L-glutamine and 10% fetal calf serum) and centrifugated at 220 × g at 20°C for 10 min. After removal of the supernatant, fresh complete medium was added and the cell pellet was resuspended twice and diluted to desired cell density. The cells were seeded on rat tail collagen coated 96-well tissue culture plates with 100 μL of the cell suspension per well. PBCEC were allowed to grow for 48 h at 37°C, 5% CO2 under saturated humidified conditions. Complete medium was exchanged for serum free medium (DMEM/Ham’s F-12 1:1 with 100 U/mL penicillin, 100 μg/mL streptomycin, 100 μg/mL gentamycin, 0.7 mM L-glutamine and 550 nM hydrocortisone (Sigma-Aldrich, Steinheim, Germany)). On day 5 in culture (96 h after seeding) half of the medium (50 μL) was removed and exchanged with 50 μL double concentrated ENN solution to reach the desired final concentrations in a concentration range from 0.1 μM to 10 μM. The cells were treated with the test substances in concentrations from 0.1 to 10 μM for 48 h. Due to the sensitivity of the primary cells, after completion of 48 h, the incubation medium was not exchanged but each well was supplemented with 10 μL of the CCK-8 solution and incubated for 70 min at 37°C, 5% CO2 in a saturated humidified atmosphere. Then the absorbance of the generated formazan dye was measured at 457 nm with 650 nm as reference wavelength. After subtracting the reference absorption as well as a blank absorption without cells, the viabilities were normalized to a solvent treated negative control (1% ACN).

PBCEC = assay: CCK-8 viability assay in PBCEC; assay type: cell-based, porcine; settings: 48 h; for cytotoxic effects: 1 μM
Method: as §1

Compound	IC50 (HT-29)	IC50 (HepG2 cells)	maximum increase of caspase-3 activity (relative to solvent control) (caspase-3; CCF-STTG1, 1 μM)	LDH release (CCF-STTG1 cells)	viability at 48 h, 10 µM ([1]; 10 μM, read-out: relative viability)	cytotoxic effects (PBCEC)	concentration with highly significant cytotoxicity (PBCEC)	increase of caspase-3 activity compared to solvent control (caspase-3; CCF-STTG1, 2.5 μM)	viability at 48 h ([1]; concentrations above 5 μM, read-out: cellular viability, minimum)
CC[C@H](C)[C@H]1C(=O)O[C@H](C(C)C)C(=O)N(C)[C@@H](C(C)C)C(=O)O[C@H](C(C)C)C(=O)N(C)[C@@H](C(C)C)C(=O)O[C@H](C(C)C)C(=O)N1C [ENN B1, enniatin B1]	3.7 µM	36 µM	160%	no significant increase of LDH release	64%	did not show any cytotoxic effects	≥ 2500 nM		
CC(C)[C@H]1C(=O)O[C@H](C(C)C)C(=O)N(C)[C@@H](C(C)C)C(=O)O[C@H](C(C)C)C(=O)N(C)[C@@H](C(C)C)C(=O)O[C@H](C(C)C)C(=O)N1C [ENN B, enniatin B]	2.8 µM	436 µM		no significant increase of LDH release		did not show any cytotoxic effects	above 5 μM	2.7 fold	70%
